Literature values as cited in patent US20180214453A1, “RIVAROXABAN PHARMACEUTICAL COMPOSITIONS” (INTERQUIM, S.A., priority 2015, published 2018).

Assays:
[1] = CHMP assessment report for Xarelto, slightly soluble
[2] = according to WO05060940 A2, practically insoluble

solubility in organic solvents [1]: 1000 to 10000 µg/mL | solubility in water [2]: about 7 mg/L
SMILES: O=C(NC[C@H]1CN(c2ccc(N3CCOCC3=O)cc2)C(=O)O1)c1ccc(Cl)s1 [Rivaroxaban, 5-chloro-N-({(5S)-2-oxo-3-[4-(3-oxomorpholin-4-yl)phenyl]-1,3-oxazolidin-5-yl}methyl)thiophene-2-carboxamide]
